Test [1] addresses T1, Metabotropic glutamate receptor 2 (Homo sapiens, UniProt Q14416). Nature of the test: Allosteric modulation of human mGluR2 expressed in CHO cells by [35S]GTPgammaS binding assay relative to glutamate. Format: functional, cell-based.
Target sequence in this assay (Q14416 19-872 limits assumed): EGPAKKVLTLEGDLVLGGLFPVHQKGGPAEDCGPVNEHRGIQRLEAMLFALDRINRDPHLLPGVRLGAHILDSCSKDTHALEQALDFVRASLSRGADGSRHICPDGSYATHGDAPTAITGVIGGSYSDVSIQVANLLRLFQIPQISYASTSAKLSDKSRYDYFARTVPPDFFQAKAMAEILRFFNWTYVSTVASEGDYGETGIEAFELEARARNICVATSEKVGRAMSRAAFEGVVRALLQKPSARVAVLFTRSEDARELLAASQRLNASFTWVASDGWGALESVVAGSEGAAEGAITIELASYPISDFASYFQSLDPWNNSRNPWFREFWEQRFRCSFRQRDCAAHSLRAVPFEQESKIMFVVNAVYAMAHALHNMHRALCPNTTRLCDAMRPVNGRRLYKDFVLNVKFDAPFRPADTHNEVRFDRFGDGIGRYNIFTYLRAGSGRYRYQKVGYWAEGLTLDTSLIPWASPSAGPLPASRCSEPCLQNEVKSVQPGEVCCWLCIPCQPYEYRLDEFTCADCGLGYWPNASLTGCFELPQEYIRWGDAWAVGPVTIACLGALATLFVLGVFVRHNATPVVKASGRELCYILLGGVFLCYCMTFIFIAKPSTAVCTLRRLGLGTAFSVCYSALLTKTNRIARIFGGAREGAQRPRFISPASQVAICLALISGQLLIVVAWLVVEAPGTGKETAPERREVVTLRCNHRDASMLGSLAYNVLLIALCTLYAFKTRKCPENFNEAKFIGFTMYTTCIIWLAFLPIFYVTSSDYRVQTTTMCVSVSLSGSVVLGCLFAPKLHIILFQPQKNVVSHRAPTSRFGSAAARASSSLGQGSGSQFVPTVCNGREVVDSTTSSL
The target of test [2] is T1, Metabotropic glutamate receptor 2. Nature of the test: Allosteric modulation of human mGluR2 expressed in CHO cells by [35S]GTPgammaS binding assay. Format: functional, cell-based.
Target sequence in this assay (Q14416 whole entry): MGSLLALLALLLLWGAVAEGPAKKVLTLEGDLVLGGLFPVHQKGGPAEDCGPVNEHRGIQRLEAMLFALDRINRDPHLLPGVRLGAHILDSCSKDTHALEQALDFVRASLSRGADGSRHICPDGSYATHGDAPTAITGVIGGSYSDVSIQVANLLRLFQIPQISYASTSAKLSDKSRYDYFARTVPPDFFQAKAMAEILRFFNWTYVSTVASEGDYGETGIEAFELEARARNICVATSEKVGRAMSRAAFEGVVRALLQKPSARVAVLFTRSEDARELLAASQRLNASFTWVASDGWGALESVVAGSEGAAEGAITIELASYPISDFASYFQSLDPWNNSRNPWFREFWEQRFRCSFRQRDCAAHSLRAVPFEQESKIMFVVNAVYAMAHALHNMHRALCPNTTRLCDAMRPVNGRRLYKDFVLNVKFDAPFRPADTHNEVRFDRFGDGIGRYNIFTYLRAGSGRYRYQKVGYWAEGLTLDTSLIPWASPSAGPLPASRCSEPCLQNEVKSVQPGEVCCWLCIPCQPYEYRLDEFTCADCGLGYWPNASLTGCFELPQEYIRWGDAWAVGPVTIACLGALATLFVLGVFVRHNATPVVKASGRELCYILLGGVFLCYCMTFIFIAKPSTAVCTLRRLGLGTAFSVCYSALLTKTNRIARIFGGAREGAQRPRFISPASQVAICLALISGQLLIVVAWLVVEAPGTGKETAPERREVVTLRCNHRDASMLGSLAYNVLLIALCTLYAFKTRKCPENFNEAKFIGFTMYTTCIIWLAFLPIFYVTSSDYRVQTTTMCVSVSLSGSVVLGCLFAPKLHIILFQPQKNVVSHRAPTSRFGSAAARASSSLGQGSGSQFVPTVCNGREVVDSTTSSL

Molecules are shown by their SMILES.

The Emax is the greatest response seen or fitted, relative to the assay's reference. On to `N#Cc1c(N2CCN(c3ncccn3)CC2)ccn2c(CCC3CC3)cnc12`, for which the Emax in test [1] was found to be 229%.
On the same count and under the same terms, under `CC(C)(C)c1ccc(-c2ccn3c(CC(F)(F)F)cnc3c2C#N)cc1` stands 272%.
As usually defined, the EC50 is the midpoint of the concentration-response curve. For `CCc1cnc2c(C#N)c(N3CCN(c4ncccn4)CC3)ccn12`, the maximum response (Emax) in test [1] was 214%. The compound further gave an EC50 in test [2] above 3.16 µM.
The corresponding values for `CCCc1cnc2c(C#N)c(N3CCN(c4ncccn4)CC3)ccn12` are 248% and above 3.16 µM.
As for `N#Cc1c(-c2ccc(N3CCCCC3)cc2)ccn2c(CC(F)(F)F)cnc12`, the maximal effect (Emax) in test [1] turned out to be 123%.
In test [1], `N#Cc1c(N2CCN(c3ccccc3)CC2)ccn2c(-c3ccccc3)cnc12` showed an Emax of 73%. The compound also gave an EC50 in test [2] above 3.16 µM.
In the case of `CCCCn1ccc(N2CCN(c3nc(C)cc(C)n3)CC2)c(C#N)c1=O`, the Emax in test [1] stood at 235%.
Still for that read-out and setting: under `N#Cc1c(-c2ccc(Oc3ccccc3)cc2)ccn2c(CC(F)(F)F)cnc12` stands 200%; under `N#Cc1c(-c2ccc(OCc3ccccc3)cc2)ccn2c(CC(F)(F)F)cnc12`, 222%; under `CCCc1cnc2c(C#N)c(N3CCN(c4ccccc4)CC3)ccn12`, 241%.
Still for that read-out and setting: under `CCc1cnc2c(C#N)c(N3CCN(c4nc(C)cc(C)n4)CC3)ccn12` stands 142%; under `N#Cc1c(-c2ccc(NC3CC3)c(Cl)c2)ccn2c(CC(F)(F)F)cnc12`, 187%.
The same measure, in the same setting: under `Cc1c(OCc2cccc(-c3ccc(C(=O)O)cc3)c2)cc2c(c1C)C(=O)C(C1CCCC1)C2` (centres undefined) stands 213%; under `N#Cc1c(N2CCN(c3ncccn3)CC2)ccn2c(CC(F)(F)F)cnc12`, 231%; under `Cc1cc(C)nc(N2CCN(c3ccn4c(CC(F)(F)F)cnc4c3C#N)CC2)n1`, 128%.
In turn, `CCCc1cnc2c(C#N)c(N3CCN(c4nc(C)cc(C)n4)CC3)ccn12` registered an Emax in test [1] of 179%.
